Data reported in US20070037887A1, “Blockade of mtor to prevent a hormonal adaptive response” (University of Virginia Patent Foundation, priority 2003, published 2007).

Legend:
[1] = test system: ERK1/2, Akt, p70S6K, PHAS-1 phosphorylation in LTED cells; assay: EGF induced activation of MAP kinase, PI3 kinase and mTOR in LTED cells (Western); assay type: cell-based, human; settings: pretreatment FTS 1 h, LY 294002 or rapamycin 3 h; EGF 1 μg/ml 1 h
From the text: FIG. 8 represents data showing the effect of FTS on EGF induced activation of MAP kinase, PI3 kinase, and mTOR in LTED cells. […] Cells were then harvested and cell lysate prepared. Phosphorylated and total kinases were detected by Western analysis using specific antibodies.
The effects of the specific growth factors, EFG and IGF-1 were also examined. Serum contains multiple growth factors that activate MAP kinase and PI3 kinase either by recruitment and activation of the common mediator Ras (such as EGF) or through a direct mechanism (such as IGF-1). To further explore the site of action of FTS, EGF-induced activation of MAPK and PI3 kinase was first examined. Specific inhibitors for PI3 kinase and mammalian target of rapamycin (mTOR) were included for comparison. […] One-hour treatment was chosen as the time point allowing most efficient comparisons among molecules.

Shc = assay: E2-induced Shc phosphorylation in MCF-7 cells; assay type: cell-based, human; settings: 10^−10 M E2 for 3 minutes
Protocol: Because ERα, Shc and MAP kinase are all involved in E2 action in MCF-7 cells, upstream components responsible for Shc phosphorylation were determined by measuring the effects of PP2, ICI and PD98059 on E2-induced phosphorylation of Shc. In the presence of the inhibitors, MCF-7 cells were stimulated with vehicle or 10^−10 M E2 for 3 minutes and the status of Shc phosphorylation was examined. […] No effects of these inhibitors were apparent in the absence of E2 stimulation. […] Each of these inhibitors was capable of reducing the rate of cell proliferation in LTED cells.

LTED cells = assay: [3H] thymidine incorporation into DNA, LTED cells; assay type: cell-based, human; settings: inhibitors of the MAP kinase pathway
Protocol: (§1) FIGS. 5A & 5B represent the effect of FTS on DNA synthesis in MCF-7 (FIG. 5A) and LTED (FIG. 5B) cells. One hundred thousand cells were plated into each well of 24-well plates. Two days later, the cells were re-fed with IMEM containing 5% DCC-FBS. After another two days, cells were treated in quadruplicate with the compounds indicated for 18 hours. [^3H] thymidine (1 μCi/well) was added during the last 2 h of incubation. [^3H] thymidine incorporated into DNA was normalized by protein content.
(§2) The inhibitory effect of FTS on cell growth may be the result of inhibition of cellular proliferation, induction of apoptosis, or both. To determine the mechanism by which FTS inhibits cell growth, FTS's effect on DNA synthesis and apoptosis was investigated. […] Estradiol (10^−10 M) increased [^3H] thymidine incorporation by 2.6 fold compared to the control level in MCF-7 cells.

MCF-7 cells [2] = assay: Growth of MCF-7 cells (cell number); assay type: cell-based, human; settings: E2 10^−10 M, five-day treatment
Protocol: FIG. 3 represents the effect of FTS on the growth of MCF-7, LTED, and MCF-10A cells. Sixty thousand cells were plated into each well of 6-well plates. Two days later, the cells were treated in triplicate for five days with FTS at indicated concentrations. The results (mean±S.E.) are expressed as percentage of the vehicle control.
FIG. 4 represents the effect of FTS on E2 stimulated growth of MCF-7 and LTED cells. Thirty thousand cells were plated into each well of 6-well plates. Two days later, the cells were re-fed with IMEM containing 5% DCC-FBS. After another two days, cells were treated in triplicate with estradiol (10^−10 M) plus various concentrations of FTS for five days. In LTED cells, fulvestrant (10^−9 M) was included in all wells to block the effect of residual estrogen in the culture. The results (mean±S.E.) are expressed as percentage of cell number from the wells containing E2.
The effect of FTS on growth of breast cancer cells was examined in two different cell lines: MCF-7 wild type cells which represent a model for untreated breast cancer and LTED cells as a model of cells adapting to endocrine treatment. Cells were grown in their culture media and treated with FTS for five days. […] The effect of FTS on E2-stimulated growth of MCF-7 and LTED cells was the examined. Five-day treatment of MCF-7 cells with E2 (10^−10 M) increased cell number by 8-fold compared with the vehicle control. Addition of FTS reduced cell number in a dose-dependent manner with about 50% inhibition at the concentration of 50 μM […]. […] The extent of inhibition of E2-stimulated cell growth by FTS was similar in these two cell lines.

MCF-7 cells [3] = assay: [3H] thymidine incorporation into DNA, MCF-7 cells; assay type: cell-based, human; settings: Estradiol 10^−10 M
Protocol: as §1, §2

MAP kinase = MAP kinase activation in LTED cells; assay type: cell-based, human
Protocol: Upregulation of MAP kinase and PI-3-kinase could reflect either a constitutive activation of growth factor receptors, an increase in the endogenous secretion of growth factors, or other mechanisms. Inhibition of MAP kinase with a pure antiestrogen would rule out the possibility of constitutive activation of growth factor receptors or growth factor secretion. Accordingly, the pure anti-estrogen, faslodex (fulvestrant) was administered and the level of activation of MAP kinase in LTED cells was examined.
Estrogen deprivation might trigger activation of a non-genomic, estrogen regulated, MAP kinase pathway which utilizes Shc. […] The addition of E2 stimulated MAP kinase phosphorylation in LTED cells within minutes. The increased MAP kinase phosphorylation by E2 was time and dose-dependent being greatly stimulated at 15 min and remaining elevated for at least 30 min. Maximal stimulation of MAP kinase phosphorylation was at 10^−10 M of E2.

mTOR-raptor complex = assay: Coimmunoprecipitation of raptor with mTOR from 293T cells incubated with compound; assay type: cell-based; settings: 293T cells incubated with 200 μM
Protocol: FIG. 11A & 11B represent data showing FTS inhibits PHAS-I phosphorylation and promotes dissociation of the mTOR-raptor complex in 293T cells. 293T cells were transfected with pcDNA3AU1-mTOR, pcDNA33HARaptor, pcDNA33HA-mLST8, and pCMV-Tag3APHAS-I (FIG. 11A). After 18 h the cells were incubated for 1 h with increasing concentrations of FTS before extracts were prepared. A sample of each extract was subjected to SDS-PAGE and immunoblotted to detect PHAS-I or PThr^36/45. AU1-mTOR was also immunoprecipitated from each extract, and immune complexes were subjected to SDSPAGE and immunoblotted with mTAb2, to detect mTOR, and with anti-HA antibodies, to detect HA-mLST8 and HA-raptor. Nontransfected 293T cells were incubated with increasing concentrations of FTS for 1 h before extracts were prepared. mTOR was immunoprecipitated with mTAb1, and samples were subjected to SDS-PAGE.
(§3) FIGS. 12A & 12B represent data showing the effects of incubating cells with increasing concentrations of FTS and GTS on mTOR activity and mTOR association with raptor and mLST8. AU1-mTOR, HA-raptor, and HAmLST8 were overexpressed in 293T cells. The cells were then incubated for 1 h with increasing concentrations of FTS (●, ▴, ▪) or GTS (∘, Δ, □) before extracts were prepared. Immunoprecipitations were then conducted with anti-AU1 antibodies. mTOR kinase activity (●, ∘) was determined by measuring ^32P incorporation into [His^6]PHAS-I in immune complex kinases assays performed with [γ-^32P]ATP. The relative amounts of HA-raptor (▴, Δ) and HA-mLST8 (▪, □) that coimmunoprecipitated with AU1-mTOR were determined after immunoblotting with anti-HA antibodies. The results (mean values±S.E. from 3 experiments) are expressed as percentages of the mTOR activity (FIG. 12A) or coimmunoprecipitating proteins (FIG. 12B) from samples incubated without FTS or GTS, and have been corrected for the amounts of AU1-mTOR immunoprecipitated.
To investigate further the inhibitory effects of FTS on mTOR signaling, the effect of the drug on the association of mTOR, raptor, and mLST8 was determined. AU1-mTOR and HA-tagged forms of raptor and mLST8 were overexpressed in 293T cells, which were then incubated with increasing concentrations of FTS before AU1-mTOR was immunoprecipitated with anti-AU1 antibodies. Immunoblots were prepared with anti-HA antibodies to assess the relative amounts of HA-raptor and HA-mLST8 that coimmunoprecipitated with AU 1-mTOR (FIG. 11A).
Results obtained with overexpressed proteins are not necessarily representative of responses of endogenous proteins. Therefore, experiments were conducted to investigate the effect FTS on the endogenous TORC1 in nontransfected cells. […]

mTOR = biological target: T1, mTOR (Rattus norvegicus, UniProt P42346); assay: Immune complex assay of mTOR activity after incubating 293T cells with compound; assay type: cell-based; settings: 293T cells incubated with 200 μM
T1 construct: expressed in transfected cells; host or cells: 293T
Protocol: as §3
FIG. 12A presents results of immune complex kinases assays with AU1-mTOR from extracts of 293T cells that had been incubated with increasing concentrations of FTS.
Immune complex assay of mTOR activity—AU1-mTOR was immunoprecipitated by using anti-AU1 antibody bound to protein G-agarose beads as described previously (McMahon, et al., (2002) Mol. Cell. Biol. 22, 7428-7438). Endogenous mTOR was immunoprecipitated in the same manner, except that mTAb1 was used instead of anti-AU1 antibody. To measure kinase activity, exhaustively washed immune complexes were suspended in 20 μl of Buffer A (50 mM NaCl, 0.1 mM EGTA, 1 mM dithiothreitol (DTT), […], 10 mM Na-HEPES, and 50 mM β-glycerophosphate, pH 7.4.). The kinase reactions were initiated by adding 20 μl of Buffer A supplemented with 2 mM [γ-^32P]ATP, 20 mM MnCl2 and 40 μg/ml of [His^6]PHAS-I. In experiments in which the effects of wortmannin were investigated, DTT was omitted from the reactions, and [His^6]PHAS-I that had been reduced and alkylated with N-ethylmaleimide was used as substrate. Reactions were terminated after 10 min at 30° by adding SDS sample buffer. Samples were subjected to SDS-PAGE and the relative amounts of ^32P incorporated into [His^6]PHAS-I were determined.

MCF-7 cells [4] = assay: Estradiol dose response of growth, wild type MCF-7 cells; assay type: cell-based, human; settings: TGF alpha 10 ng/ml
Protocol: As further evidence of the role of MAP kinase, PD 98059 was administered to LTED cells and its effect on level of sensitivity to estradiol was examined.
To investigate whether the MAP and P13 kinase pathways have a role in estradiol induced cell proliferation, the following experiments were conducted. […] Blockade of this effect was obtained with the MAPK inhibitor PD98059. Administration of TGF at a dose of 10 ng/ml caused a 2-log shift to the left in the ability of estradiol to stimulate the growth of wild-type MCF-7 cells. […] Dual inhibition of PI3K with LY40029 and MAPK with U0126 shifted the level of sensitivity to estradiol more dramatically, by more than 2 logs to the right. On the basis of these observations, it is believed that adaptive hypersensitivity involves the joint activation of the PI3K and MAPK pathways.

O=c1cc(N2CCOCC2)oc2c(-c3ccccc3)cccc12 [LY 294002, reference compound]
EGF-induced ERK1/2 MAP kinase phosphorylation [1]: did not inhibit

CC(C)(C)n1nc(-c2ccc(Cl)cc2)c2c(N)ncnc21 [PP2]
E2-induced Shc phosphorylation (Shc): effectively inhibited

N#CC(=C(/N)Sc1ccccc1N)/C(C#N)=C(\N)Sc1ccccc1N [U 0126]
incorporation of tritiated thymidine into DNA (LTED cells): block the incorporation

C[C@]12CC[C@@H]3c4ccc(O)cc4CC[C@H]3[C@@H]1CC[C@@H]2O [estradiol, reference compound]
increase of cell number compared with the vehicle control (MCF-7 cells [2]): 8 fold | increase of [3H] thymidine incorporation compared to control level (MCF-7 cells [3]): 2.6 fold | concentration of maximal stimulation of MAP kinase phosphorylation (MAP kinase): 10^−10 M

O=c1c(-c2ccc(O)cc2)coc2cc(O)cc(O)c12 [genestein]
incorporation of tritiated thymidine into DNA (LTED cells): block tritiated thymidine uptake

CC[C@H](C)C(=O)O[C@H]1CCC=C2C=C[C@H](C)[C@H](CC[C@@H]3C[C@@H](O)CC(=O)O3)[C@H]21 [mevastatin]
incorporation of tritiated thymidine into DNA (LTED cells): block tritiated thymidine uptake

CO[C@H]1C[C@@H]2CC[C@@H](C)[C@@](O)(O2)C(=O)C(=O)N2CCCC[C@H]2C(=O)O[C@H]([C@H](C)C[C@@H]2CC[C@@H](O)[C@H](OC)C2)CC(=O)[C@H](C)/C=C(\C)[C@@H](O)[C@@H](OC)C(=O)[C@H](C)C[C@H](C)/C=C/C=C/C=C/1C [rapamycin, reference compound]
EGF-induced ERK1/2 MAP kinase phosphorylation [1]: did not inhibit

O=C([O-])c1ccccc1O.[Na+] [sodium salicylate, reference compound]
association of mTOR and raptor (mTOR-raptor complex): without effect | mTOR activity (mTOR): without effect

TGF alpha: growth factor used to activate MAP kinase in wild type MCF-7 cells
shift to the left of estradiol dose response for growth (MCF-7 cells [4]): two log shift to the left | shift to the left of estradiol dose response for growth (MCF-7 cells [4]; listed as TGF): 2 log
